Assays:
[1] = test system: HT1080 cells (endogenous IDH1 R132C); test: 2HG fluorimetric assay / high-throughput screen, secreted 2HG in media; format: cell-based, human; settings: for Secreted (extracellular) 2HG: HT1080 cells, 48 hours, fluorescent assay, normalized to viability; for Viability in high-throughput screen (Alamar Blue) / 2HG in high-throughput screen: HT1080, 48 hours; for 2HG in high-throughput screen: screen hits top left quadrant
Experimental: 2HG fluorimetric assay. N-terminal 6×-His tagged PHGDH was expressed and purified from chemically competent BL-21 E. coli using Ni-NTA agarose (Qiagen) (Grant et al., 1999). Purified protein was then dialyzed in 40 mM KPO4 buffer at 4° C. overnight. Conditioned culture media (DMEM or aMEM) containing 2HG was neutralized with 60 mM HCL for 10 minutes followed by 60 mM Tris base. A 20 μL aliquot of neutralized conditioned media was then mixed with 90 μL of optimized assay reaction mix consisting of 5 μg purified PHGDH enzyme, 12.5 μM resazurin (Sigma-Aldrich), 0.125 U/ml diaphorase (Sigma-Aldrich), 1 mM NAD (Sigma-Aldrich), 40 mM Tris-HCl pH 8.8, and incubated for 90 minutes in a 96-well plate. Resorufin fluorescence was then quantified using a FLUOstar™ OPTIMA fluorescence plate reader (BMG Labtech) with excitation and emission peaks of 544 nm and 590 nm, respectively. Measurements were background subtracted (neutralized fresh media) and normalized either to total protein or viability as measured by Alamar Blue (Naik et al., 2009).
High-throughput screening. Screening was carried out using the Beckman Coulter (Fullerton, Calif.) Core Robotics system, including an FX liquid handler, controlled by the Sagian graphical method development tool (SAMI scheduling software). The Institute of Chemistry and Cell Biology (ICCB) Known Bioactives Library (Enzo Lifescience, BML-2840-0100) was diluted 1:200 in αMEM and 50 μL were added to pre-plated HT1080 cells. After 48 hours of incubation, media was removed and 2HG in the media was measured using the fluorimetric assay. Fresh 2HG fluorimetric assay reaction mix was prepared immediately before assaying each screen plate to limit background modulation. Cell viability was determined using Alamar Blue, as described previously (Naik et al., 2009).
To identify screen hits and account for differences in compound toxicity, 2HG fluorescence was first median-centered around DMSO treatment controls within each screen plate. 2HG fluorescence was then plotted against viability such that a correlation between the two measurements could be visualized. A linear fit and 95% predictive interval (P.I.) were then determined and plotted using GraphPad Prism (GraphPad Software).

[2] = test system: D54 glioblastoma cells expressing IDH1 R132H; settings: cited from earlier work
HT1080 cells = test: GC-MS quantification of 2HG and upstream metabolites in HT1080 cells; format: cell-based, human; settings: for Cellular 3-phosphoglycerate (3PG) level: HT1080, 300 μM Zaprinast or 10 μM BPTES
Experimental: (§1) GC-MS analysis. Metabolite extraction from cultured cells was performed as described previously by Figueroa et al. (2010). Briefly, cells were rinsed in ice cold PBS and rapidly quenched with 80% methanol spiked with 3-hydroxy-1,5-pentanedioic-2,2,3,4,4-d5 acid (CDN Isotopes, Quebec Canada) as an internal standard. Extracts were then incubated at −80° C. for 20 minutes, sonicated on ice, centrifuged at 14,000×g for 20 minutes at 4° C. to clear precipitate proteins, and supernatants transferred to vials for drying under N2. Derivatizing reagent (MSTFA (N-methyl-N-(trimethylsilyl)trifluoroacetamide):pyridine:acetonitrile 1:1:2) was added to the vials, which were then heated at 70° C. for 15 minutes.
(§2) Derivatized samples were analyzed on an Agilent 7890A gas chromatograph interfaced to an Agilent 5975C mass spectrometer. The GC column used for the study was a HP-5MS (30 m, 0.25 mm i.d., 0.25 μm film coating). A linear temperature gradient was used. The initial temperature of 80° C. was held for 2 minute and increased to 300° C. at 10° C./minute. The temperature was held at 300° C. for 2 minutes. The samples were run by electron ionization (EI) and the source temperature, electron energy, and emission current were 200° C., 70 eV, and 300 μA, respectively. The injector and transfer line temperatures were 250° C. 3-Hydroxy-1,5-pentanedioic-2,2,3,4,4-d5 acid was used as the internal standard in SIM mode for quantitation of 2-hydroxyglutaric acid. Quantitation was carried out by monitoring the ions at m/z 347 (glutamine and αKG), 348 (glutamate), 349 (2-hydroxyglutaric acid), and 354 (3-hydroxy-1,5-pentanedioic-2,2,3,4,4-d5).

[3] = test system: NHA cells expressing IDH1 R132H; test: Soft agar colony assay; format: cell-based, human; settings: IDH1 R132H astrocytes
From the text: Soft agar assay. A bottom layer of 0.6% soft agar with complete DMEM and 10% FBS was set in 6-well plates and allowed to solidify. Approximately 8,000 cells were then suspended in 0.4% soft agar and plated on top. Colonies were allowed to develop over 3-4 weeks and stained with crystal violet.

[4] = test system: PDAC cells Panc1 and MiaPaca2; test: ROS quantification (DCFDA); format: cell-based; settings: 48 hours
Experimental: ROS quantification. Reactive oxygen species levels in PDAC cells were quantified using 2,7-dichlorofluorescein diacetate (DCFDA). Following 48 hours of drug treatment in a 96-well plate, cells were washed with PBS, stained for 30 minutes at 37° C. with 20 μM DCFDA, and imaged using an InCell Analyzer 1000. A 10× objective was used to collect 16 fluorescent and bright field images per well with a 10% overlap to allow image stitching. Stained cells were then quantified using the GE InCell Investigator software package with Developer Toolbox.

[5] = test system: NHA cells expressing IDH1 R132H or wild type IDH1; test: Histone lysine methylation by Western blot in immortalized NHA cells; format: cell-based, human
Experimental: Histone extraction and Western blot analysis. For extraction of total cellular protein, cells were lysed in RIPA buffer (150 mM NaCl, 50 mM Tris, 5 mM EDTA, 1% NP-40, 0.1% SDS, 0.5% sodium deoxycholate, pH 7.4), supplemented with protease inhibitor cocktail (Roche), sodium orthovanadate (1 mM), and PMSF (1 mM). Whole-cell lysates were normalized for protein content by BCA assay (Pierce). Histone extraction was performed using an EpiQuik™ Total Histone Extraction Kit (Epigentek) and extracted protein was quantified using a Bradford assay.
Proteins were resolved by SDS-PAGE, transferred to a PVDF membrane and probed with the following antibodies: IDH1 (Origene, TA500610), 6× His (Abcam, ab1187), H3K9Me2 (Cell Signaling, 4658p), H3K9Me3 (Abcam, ab8898), H3K27Me3 (Millipore, 07-449), H3K79Me2 (Cell Signaling, 9757p), total H3 (Cell Signaling, 4499p), and Actin. Secondary anti-mouse and anti-rabbit horseradish peroxidase-conjugated IgG antibodies were used for detection.

[6] = molecular target: T1, purified, full length, human GLS1 (Homo sapiens, UniProt O94925); test: Glutaminase assay (two-step, purified enzyme); format: biochemical
T1 construct: 6xHis (N); made in house; host or cells: E. coli BL-21
T1 sequence (O94925 55-669): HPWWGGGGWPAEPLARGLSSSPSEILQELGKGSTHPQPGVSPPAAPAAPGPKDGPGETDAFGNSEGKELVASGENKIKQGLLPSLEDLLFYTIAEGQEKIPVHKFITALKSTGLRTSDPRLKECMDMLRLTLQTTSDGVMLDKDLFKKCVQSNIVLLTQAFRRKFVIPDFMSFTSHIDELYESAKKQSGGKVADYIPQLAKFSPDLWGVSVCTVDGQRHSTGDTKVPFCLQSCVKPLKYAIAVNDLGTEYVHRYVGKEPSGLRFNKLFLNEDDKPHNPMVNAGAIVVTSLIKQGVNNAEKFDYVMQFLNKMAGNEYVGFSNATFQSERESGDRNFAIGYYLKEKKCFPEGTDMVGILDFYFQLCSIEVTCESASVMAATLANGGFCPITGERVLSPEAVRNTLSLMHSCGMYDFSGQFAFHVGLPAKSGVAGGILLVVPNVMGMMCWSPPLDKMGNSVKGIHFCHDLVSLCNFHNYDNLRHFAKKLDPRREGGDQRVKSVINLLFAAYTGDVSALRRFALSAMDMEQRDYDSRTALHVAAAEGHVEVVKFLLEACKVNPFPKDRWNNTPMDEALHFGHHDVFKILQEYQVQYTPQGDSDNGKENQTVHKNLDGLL
Experimental: Glutaminase assay. N-terminal 6×-His tagged GLS1 was expressed and purified from chemically competent BL-21 E. coli using Ni-NTA agarose beads (Qiagen). Purified protein was then dialyzed in a 50 mM Tris-phosphate buffer containing 1 mM dithiothreitol at 4° C. overnight. A previously described two-step assay was used to measure glutaminase activity (Kenny et al., 2003). […] […] […] For the second step of the assay, 20 μL of completed and quenched initial reaction were transferred to a new plate and 200 μL of secondary reaction mix containing 0.4 mg bovine liver glutamate dehydrogenase (Sigma-Aldrich), 0.09 M Tris-acetate (pH 9.4), 0.2 M hydrazine, 0.25 mM ADP, and 2 mM NAD was added. Samples were incubated for 40 minutes at room temperature and absorbance of NADH (340 nm) was measured using a microplate spectrophotometer.

[7] = test system: PDAC cells Panc1 and MiaPaca2; test: Sensitivity to H2O2, viability by Alamar Blue; format: cell-based
From the text: (§3) Cell culture, transfection, and generation of stable cell lines. HT1080, HEK293T, Panc1, and MIA PaCa-2 cells were obtained from the American Type Culture Collection (ATCC). Normal human astrocytes (NHA) immortalized with E6/E7/hTERT were a kind gift from Dr. Russell O. Pieper (University of California, San Francisco). All cells tested negative for mycoplasma infection. HT1080 cells were authenticated by genotyping for IDH1 and were confirmed to harbor a heterozygous IDH1 R132C mutation by Sanger sequencing of genomic DNA products. The remaining cell lines were not further authenticated. HEK293T, NHA, PANC-1, and MIA Paca-2 cells were maintained with complete DMEM containing 10% fetal bovine serum (FBS) and 1% penicillin/streptomycin (P/S). HT1080 cells were maintained in αMEM containing 10% FBS and 1% P/S. Glutamine-free DMEM (Life Technologies) was supplemented with 10% FBS and 1% P/S and spiked with varying amounts of L-glutamine (Cellgro) for glutamine growth curves.

[8] = test system: PDAC cells Panc1 and MiaPaca2; test: GC-MS of glutamine, glutamate and αKG in PDAC cells; format: cell-based; settings: 300 μM, 48 hours
Experimental: as §1, §2

[9] = test system: PDAC cells Panc1 and MiaPaca2; test: Growth of PDAC cells; format: cell-based
From the text: as §3

[10] = test system: NHA cells ectopically expressing R132H IDH1; test: GC-MS quantification of 2HG and upstream metabolites in NHA cells expressing IDH1 R132H; format: cell-based, human; settings: 48 hours
Experimental: as §1
as §2, with “The temperature was held at 300° C. for 2 minutes. The samples were run by electron ionization (EI) and the source temperature, electron energy, and emission current were 200° C., 70 eV, and 300 μA, respectively. The injector and transfer line temperatures were 250° C.” left out

Nc1nc2c(nc(Br)n2[C@@H]2O[C@@H]3COP(=O)(O)O[C@H]3[C@H]2O)c(=O)[nH]1 [8-bromo-cGMP]
Secreted (extracellular) 2HG [1]: did not cause a reduction

O=C(Cc1ccccc1)Nc1nnc(CCSCCc2nnc(NC(=O)Cc3ccccc3)s2)s1 [BPTES]
2HG levels in D54 cells [2]: unaffected | Growth of D54 cells expressing IDH1 R132H compared to wild type IDH1 [2]: preferentially limits growth | Cellular 3-phosphoglycerate (3PG) level (HT1080 cells): did not cause an elevation

COCc1cc(O)c(O)c(O)c1-c1c(COC)cc(O)c(O)c1O [HBDDE]
Viability in high-throughput screen (Alamar Blue) [1]: little effect on viability | 2HG in high-throughput screen [1]: reduced 2HG

CCCc1nn(C)c2c(=O)[nH]c(-c3cc(S(=O)(=O)N4CCN(C)CC4)ccc3OCC)nc12 [Sildenafil]
Secreted (extracellular) 2HG [1]: no change

CCCOc1ccccc1-c1nc2nn[nH]c2c(=O)[nH]1 [Zaprinast, 5-(2-propoxyphenyl)-1H-[1,2,3]triazolo[4,5-d]pyrimidin-7(4H)-one]
Soft agar colony formation [3]: reduced colony formation in IDH1 R132H astrocytes down to the level of vector and wild-type cells | Reactive oxygen species (DCFDA-positive cells) [4]: increase in reactive oxygen species (ROS) in a concentration-dependent manner | Methylation levels of H3K9Me2 or H3K9Me3 ([5]; IDH1 WT expressing astrocytes, 300 μM): did not produced such a marked reduction | Histone methylation marks (H3K9Me2, H3K9Me3, H3K27Me3, H3K79Me2) ([5]; astrocytes expressing R132H IDH1): marked reduction toward baseline methylation levels | Mode of GLS1 inhibition ([6]; Lineweaver-Burk, with respect to glutamine): noncompetitive inhibitor | IC50 ([6]; purified human GLS1, read-out: IC50, enzymatic activity of GLS1): ~200 µM | Ki ([6]; read-out: Ki, GLS1 kinetic analysis): 220 µM | Cellular 3-phosphoglycerate (3PG) level (HT1080 cells): did not cause an elevation | Cellular alpha-ketoglutarate level (HT1080 cells; HT1080, 48 hours): reduced | Cellular glutamate level (HT1080 cells; HT1080, 48 hours): reduced | Intracellular 2HG by GC-MS (HT1080 cells; HT1080, 48 hours): modulated in a concentration-dependent manner | Intracellular glutamine level (HT1080 cells; HT1080, 48 hours): unaffected | Sensitivity to oxidative damage after adding back glutamate ([7]; Zaprinast with 5 mM glutamate): nearly completely abolished the increased sensitivity to oxidative damage | Susceptibility to hydrogen peroxide stress versus vehicle ([7]; cells pretreated with Zaprinast): significantly more susceptible | Cellular glutamine [8]: increase | Cellular pool of glutamate [8]: significant reductions | Cellular pool of αKG [8]: significant reductions | Viability in high-throughput screen (Alamar Blue) [1]: little effect on viability | 2HG in high-throughput screen [1]: reduced 2HG | Secreted (extracellular) 2HG [1]: concentration-dependent reduction | Concentration required to observe a significant reduction in 2HG ([1]; in cells): 100 to 300 µM | Growth of PDAC cells ([9]; 100 μM and 300 μM Zaprinast): significantly reduced | Growth of PDAC cells with glutamate supplementation ([9]; Zaprinast with 5 mM glutamate): restoration of growth | Intracellular 2HG by GC-MS [10]: modulated in a concentration-dependent manner | Pattern of 2HG and upstream metabolite changes ([10]; compared with HT1080): the same pattern of metabolite level changes

Nc1nc2c(ncn2[C@@H]2O[C@@H]3COP(=O)(O)O[C@H]3[C@H]2O)c(=O)[nH]1 [cGMP]
Effect on GLS1 enzymatic activity ([6]; control experiment, 10 mM glutamine): no direct effect

Source: US20150273088A1 (Board of Regents, The University of Texas System, priority 2014, published 2015)
